Columns and labels:
[1] = tested on: azide-tagged intracellular organelles in U-2 OS cells; test: Live cell SPAAC labelling of azide-tagged organelles (mitochondria, lysosome, golgi apparatus); format: cell-based, human; settings: U-2 OS cells pre-treated with TPP-Az, Sphingo-Az or Morph-Az, 2 μM probe, 1 h, 37 °C
From the text: Next, we investigated intracellular imaging in live cells using CO-1. We synthesized various azide-bearing reporters: TPP-Az, a triphenylphosphonium analogue which accumulates in mitochondria; Sphingo-Az, a ceramide analogue to target golgi apparatus; and Morph-Az, an azide derivative with morpholine moiety as a directing group for lysosome (Fig. 3a). SPAAC covalent labelling reactions between CO-1 and all azide reporters in vitro were clean and rapid. We anticipated that the cell permeable CO-1 is capable of labelling any azide reporters effectively, regardless the reporters' cellular localization. We added 2 μM CO-1 to the growth media of U-2 OS cells pre-treated with TPP-Az, Sphingo-Az or Morph-Az separately. Confocal fluorescence images were then taken after probe washing.
Figure 3 Live cell imaging with CO-1. (a) Chemical structures and schematic illustration of the covalent labelling of azide-tagged organelles using CO-1 in live cells. (b) Fluorescence imaging of mitochondria, lysosome and golgi apparatus in U-2 OS cells labelled with CO-1. Cells pre-treated with TPP-Az, Morph-Az or Sphingo-Az were incubated with 2 μM CO-1 in growth media at 37 °C for 1 h and followed by counterstaining with organelle trackers. Scale bar, 15 μm. (c) Fluorescence imaging of histone H2B in live U-2 OS. U-2 OS cells were co-transfected with plasmids pIre-Azi3 and pmH2B-6-mKate2-16tag to incorporate UAA Azi into H2B-mKate2 at site 16. After Azi incorporation, cells were labelled with 10 μM CO-1 for 90 min at 37 °C. Cells were then washed and imaged. The mKate2 (red) signals were detected in cell nuclei only, and colocalized with the CO-1 (green) signals in the merged image. Scale bar, 5 μm.
U-2 OS cells were treated with 5 μM TPP-Az, in culture media for 2 h at 37 °C. After incubation, cells were washed and added with 2 μM CO-1 probe. Labelling was allowed to proceed for 1 h at 37 °C in the incubator chamber. […]
Fluorescence imaging of mitochondria, lysosome and golgi apparatus in U-2 OS cells labeled with CO-1H. […] In contrast to CO-1, high fluorescence background from CO-1H was observed. […]

[2] = tested on: human histone H2B (H2B-mKate2 fusion with Azi at site 16) in U-2 OS cells; test: Histone H2B imaging in live cells (Azi incorporated in H2B-mKate2); format: cell-based; settings: live U-2 OS cells, 10 μM, 37 °C
From the text: The red fluorescent protein mKate2 was fused to the C terminus of human histone H2B as a red fluorescent marker. Using the in vivo unnatural amino acid (UAA) technology,[27][28] an azide-bearing UAA, p-azido-L-phenylalanine (Azi), was site-specifically incorporated at site 16 of mKate2 of the fusion protein H2B-mKate2, which was expressed in live U-2 OS cells. The cells were labelled with CO-1, washed to remove unreacted CO-1, and then imaged with laser scanning confocal microscopy.
U-2 OS cells were transfected with 1 μg DNA of each plasmid using Lipofectamine2000 in 35 mm glass bottom dishes according to the manufacturer protocol. Azi (purchased from Bachem) was added 1 h before transfection at a final concentration of 0.5 mM. Plasmid pIre-Azi3 (expressing the orthogonal amber suppressor transfer RNA (tRNA) and the E2AziRS specific for Azi) was co-transfected with plasmid pmH2B-6-mKate2-16tag in a 1:1 molar ratio. After 24 h, cells were washed three times with culture medium (DMEM with 10% FBS) (15 min each time). Growth media containing 10 μM CO-1 was then added to the dishes, and cells were incubated at 37 °C for 90 min followed by 4 times washing with growth media (30 min each time). Laser scanning confocal microscopy (Zeiss LSM 700) was used for imaging. The same conditions and settings were used for imaging control and experimental cells.
U-2 OS cells were transfected with plasmid pmH2B-6-mKate2. After 24 hours, cells were
labeled with 10 μM CO-1 for 90 minutes at 37 °C. Cells were washed to remove the unreacted
CO-1 and then imaged for mKate2 (red) and CO-1 (green) signals. Scale bar, 5 μm.
(1 picture or pasted object on this page, not shown here)

- Nuclear membrane permeability ([2]; 90 min): pass through nuclear membrane
Structure (SMILES): Cc1cc(C)n2c1C(CCNC(=O)CCC(=O)OCC1C3CCC#CCCC31)=C1C=CC=[N+]1[B-]2(F)F (centres unmarked) [CO-1]
- Fluorescence background after washing [1]: Clean fluorescence background
- Labelling of azide-tagged organelles [1]: clearly labelled the azide-tagged intracellular organelles in live cells
- Labelling of Azi-bearing histone H2B-mKate2 ([2]; 90 min): specific labelling of histone H2B
- Labelling of wild type H2B-mKate2 (control without Azi) ([2]; 90 minutes): did not label wild type H2B-mKate2

Source: PMC4915154, “Development of background-free tame fluorescent probes for intracellular live cell imaging” (Nature Communications, 2016)
